# Data taken from patent US5464754A, “Assay and substrate for arachidonoyl-specific phospholipase A2” (The Regents of the University of California, priority 1993, dated 1995).
# B1: cPLA: 85 kDa arachidonic acid specific enzyme; purified, recombinant human (protein, UniProt P47712 1-749, looked up)
# Cytosolic phospholipase A2: MSFIDPYQHIIVEHQYSHKFTVVVLRATKVTKGAFGDMLDTPDPYVELFISTTPDSRKRTRHFNNDINPVWNETFEFILDPNQENVLEITLMDANYVMDETLGTATFTVSSMKVGEKKEVPFIFNQVTEMVLEMSLEVCSCPDLRFSMALCDQEKTFRQQRKEHIRESMKKLLGPKNSEGLHSARDVPVVAILGSGGGFRAMVGFSGVMKALYESGILDCATYVAGLSGSTWYMSTLYSHPDFPEKGPEEINEELMKNVSHNPLLLLTPQKVKRYVESLWKKKSSGQPVTFTDIFGMLIGETLIHNRMNTTLSSLKEKVNTAQCPLPLFTCLHVKPDVSELMFADWVEFSPYEIGMAKYGTFMAPDLFGSKFFMGTVVKKYEENPLHFLMGVWGSAFSILFNRVLGVSGSQSRGSTMEEELENITTKHIVSNDSSDSDDESHEPKGTENEDAGSDYQSDNQASWIHRMIMALVSDSALFNTREGRAGKVHNFMLGLNLNTSYPLSPLSDFATQDSFDDDELDAAVADPDEFERIYEPLDVKSKKIHVVDSGLTFNLPYPLILRPQRGVDLIISFDFSARPSDSSPPFKELLLAEKWAKMNKLPFPKIDPYVFDREGLKECYVFKPKNPDMEKDCPTIIHFVLANINFRKYRAPGVPRETEEEKEIADFDIFDDPESPFSTFNFQYPNQAFKRLHDLMHFNTLNNIDVIKEAMVESIEYRRQNPSRCSVSLSNVEARRFFNKEFLSKPKA
# Experiments:
# [1] = test system: cPLA enzyme; assay: Effect of solvent and diluent components on cPLA enzyme activity; type: biochemical, human
# Method: The substrate diluent generally comprises any suitable assay buffer system, such as HEPES, Tris-HCL, Tris-maleate, glycine, or the like. […] A suitable diluent comprises about 25% -50% glycerol, and preferably about 30% glycerol.
# The thiosubstrate diluent also comprises an amount of detergent sufficient to solubilize! the substrate. One suitable detergent is Triton-X 100. Triton-X 100 is preferably used at concentrations of about 1-5 mM with about 1-3 mM thiosubstrate.
# The Ca^2+ can be provided by the addition of CaCl2 to the diluent, preferably at concentrations greater than 1 mM, and more preferably at a concentration of about 10 mM.
# The effectiveness of a phospholipase A2 enzyme inhibitor can be measured by adding the inhibitor to the substrate solution prior to the incubation with enzyme. […] Therefore, approximately 10 μl inhibitor dissolved in DMSO can be added to 200 μl substrate solution prior to the addition of enzyme to test the effectiveness of the inhibitor against cPLA. […] Thus, appropriate blanks should be run under each condition tested.
# [2] = test system: cPLA enzyme; assay: Sensitivity of cPLA enzyme to thiol-sensitive reagents; type: biochemical, human; conditions: in the presence of DTNB (Ellman's reagent)
# Method: The sPLA enzymes are very stable, containing 7 disulfide bonds. […] In contrast, cPLA is an intracellular enzyme and assays and purifications are often run in the presence of reduced thiols, such as 2-mercaptoethanol or dithiothreitol (Kramer et al., supra; Clark, J. D., et al., supra).
# After an incubation period, the enzyme/substrate reaction is quenched by the addition of a quenching reagent and a thiol-sensitive reagent. As used herein, the term "quenching reagent" refers to any compound capable of stopping the enzymatic activity of phospholipase A2 enzyme. Suitable quenching reagents are Ca^2+ chelators such as ethylene glycol bis(oxyethylenenitrilo) tetraacetic acid (EGTA) and the like, or high concentrations of a detergent such as 30 mM Triton X-100. The thiol-sensitive reagent can be any reagent capable of releasing a chromophore such as DTNB or 4,4'-dithiodipyridine (DTP). DTNB is a preferred thiol-sensitive reagent because its chromophore can be detected at […], which is available to most microtiterplate readers.
# [3] = test system: cPLA2 (purified, recombinant human); assay: Microtiterplate assay for cPLA2 using thioPC substrate; type: biochemical
# Method: The enzyme activity of CPLA2 was assayed using a ThioPC/Triton X-100 substrate solution. An appropriate volume of ThioPC in chloroform solution was evaporated to dryness under a stream of N2. Triton X-100 (8 mM) in 2× assay buffer (160 mM HEPES, pH 7.4, 300 mM NaCl, 20 mM CaC2, 2 mg/ml BSA) was added to the dried lipid in one-half the desired final volume to give a 2-fold concentrated substrate solution. This solution was bath sonicated 1 min to loosen dried ThioPC from the walls of the vial and then probe sonicated On ice, 20 sec on, 20 sec off for 3 min. The solution was then warmed to 40° C. and warm glycerol equivalent to 30% of the final volume was added. The solution was then brought to the desired final volume with deionized H2 O. The final assay contained 2 mM ThioPC, 4 mM Triton! X-100 and 30% glycerol in 80 mM HEPES, pH 7.4, 150 mM NaCl, 10 mM CaCl2 and 1 mg/ml BSA.
# The substrate was then aliquotted, in 200 μl increments, into the wells of a 96-well plate and equilibrated for 5 min at 37° C. To initiate the reaction, 500 ng cPLA2 (purified, recombinant human), in a 5 μl volume of 1× assay buffer, was added to the wells, the plate was shaken 20 seconds on high to mix, and then incubated for 60 min at 37° C. […]
# After 60 min, 10 μl of a 25 mM DTNB/475 mM EGTA mixture was added to all substrate containing wells to quench the reaction and initiate the color development. […] After adding the DTNB/EGTA, the plate was once again shaken 20 sec on high and allowed to incubate for an additional 3 min to give the DTNB chromophore time to fully develop prior to reading the plate. The absorbance was measured using a dual wavelength option (405 nm -620 nm) to correct for light scattering. […] The average absorbance of the blanks was subtracted from that of the enzyme containing wells to correct for the absorbance due to the substrate, DTNB, and EGTA. The difference in absorbance was used to calculate enzyme activity. […] Specific activity was calculated using ε405 for DTNB of 12,800 M^- cm^-1 (Yu et al supra) and a path length of 0.47 cm for 215 μl final total volume. […]
molecule,measurement,setting,value
C[S+](C)[O-] [DMSO],effect of DMSO on enzyme activity,[1]; DMSO:enzyme/substrate ratio of about 1:20,unaffected
"O=C(O)c1cc(SSc2ccc([N+](=O)[O-])c(C(=O)O)c2)ccc1[N+](=O)[O-] [DTNB, 5,5'-dithiobis(2-nitrobenzoic acid)]",enzymatic activity of cPLA in the presence of thiol-sensitive reagent,[2],enzymatic activity was lost
OCC(O)CO [glycerol],effect of glycerol on enzyme activity,"[1]; about 70% glycerol, diluent too viscous",enzyme activity is increased
same,effect of glycerol on enzyme activity,[1]; glycerol as component of substrate diluent,Enzyme activity increases
"CCCCC/C=C\C/C=C\C/C=C\C/C=C\CCCC(=O)S[C@H](COCCCCCCCCCCCCCCCC)COP(=O)([O-])OCC[N+](C)(C)C [thioPC, 1-hexadecyl-2-arachidonoylthio-2-deoxy-sn-glycero-3-phosphorylcholine]",enzyme activity as a function of time: more linear phase,"[3]; 2 mM ThioPC, 4 mM Triton X-100, 30% glycerol, pH 7.4, 37° C., FIG. 3",5 to 60 min
same,enzyme activity as a function of time: burst phase,"[3]; 2 mM ThioPC, 4 mM Triton X-100, 30% glycerol, pH 7.4, 37° C., FIG. 3, short burst of activity",5 min
Triton X-100,effect of Triton X-100 on stability of cPLA activity,[1]; Triton X-100 at about 1-5 mM with about 1-3 mM thiosubstrate,more stable
B1,range of enzyme amount with linear activity,"[3]; FIG. 2, thiosubstrate assay, listed as cytosolic phospholipase A2",0.05 to 1.0 µg
